According to ChEMBL document CHEMBL1131152, “In vitro and in vivo activities of oligodeoxynucleotide-based thrombin inhibitors containing neutral formacetal linkages” (J Med Chem, 1998):

Target: Prothrombin (Homo sapiens) (UniProt P00734)
Experiment: Relative prothrombin time was determined as the activity of the test ODN (oligodeoxynucleotide) relative to that of GS-522

| Compound | Relative PT |
| --- | --- |
| Cc1cn([C@H]2C[C@H](OP(=O)(O)OC[C@H]3O[C@@H](n4cnc5c(=O)nc(N)[nH]c54)C[C@@H]3OP(=O)(O)OC[C@H]3O[C@@H](n4cnc5c(=O)[nH]c(=N)[nH]c54)C[C@@H]3OP(=O)(O)OC[C@H]3O[C@@H](n4cc(C)c(=O)[nH]c4=O)C[C@@H]3OP(=O)(O)OC[C@H]3O[C@@H](n4cnc5c(=O)nc(N)[nH]c54)C[C@@H]3OP(=O)(O)OC[C@H]3O[C@@H](n4cc(C)c(=O)[nH]c4=O)C[C@@H]3OP(=O)(O)OC[C@H]3O[C@@H](n4cnc5c(=O)nc(N)[nH]c54)C[C@@H]3OP(=O)(O)OC[C@H]3O[C@@H](n4cnc5c(=O)[nH]c(=N)[nH]c54)C[C@@H]3OP(=O)(O)OC[C@H]3O[C@@H](n4cc(C)c(=O)[nH]c4=O)C[C@@H]3OP(=O)(O)OC[C@H]3O[C@@H](n4cc(C)c(=O)[nH]c4=O)C[C@@H]3OP(=O)(O)OC[C@H]3O[C@@H](n4cnc5c(=O)[nH]c(=N)[nH]c54)C[C@@H]3OP(=O)(O)OC[C@H]3O[C@@H](n4cnc5c(=O)nc(N)[nH]c54)C[C@@H]3O)[C@@H](COP(=O)(O)O[C@H]3C[C@H](n4cc(C)c(=O)[nH]c4=O)O[C@@H]3COP(=O)(O)O[C@H]3C[C@H](n4cnc5c(=O)[nH]c(=N)[nH]c54)O[C@@H]3COCO[C@H]3C[C@H](n4cnc5c(=O)nc(N)[nH]c54)O[C@@H]3COP(=O)(O)O)O2)c(=O)[nH]c1=O | 0.9 |
| Cc1cn([C@H]2C[C@H](OP(=O)(O)OC[C@H]3O[C@@H](n4cnc5c(=O)nc(N)[nH]c54)C[C@@H]3OP(=O)(O)OC[C@H]3O[C@@H](n4cnc5c(=O)[nH]c(=N)[nH]c54)C[C@@H]3OP(=O)(O)OC[C@H]3O[C@@H](n4cc(C)c(=O)[nH]c4=O)C[C@@H]3OP(=O)(O)OC[C@H]3O[C@@H](n4cc(C)c(=O)[nH]c4=O)C[C@@H]3OP(=O)(O)OC[C@H]3O[C@@H](n4cnc5c(=O)[nH]c(=N)[nH]c54)C[C@@H]3OP(=O)(O)OC[C@H]3O[C@@H](n4cnc5c(=O)nc(N)[nH]c54)C[C@@H]3O)[C@@H](COCO[C@H]3C[C@H](n4cnc5c(=O)nc(N)[nH]c54)O[C@@H]3COP(=O)(O)O[C@H]3C[C@H](n4cc(C)c(=O)[nH]c4=O)O[C@@H]3COP(=O)(O)O[C@H]3C[C@H](n4cnc5c(=O)[nH]c(=N)[nH]c54)O[C@@H]3COP(=O)(O)O[C@H]3C[C@H](n4cnc5c(=O)nc(N)[nH]c54)O[C@@H]3COP(=O)(O)O[C@H]3C[C@H](n4cc(C)c(=O)[nH]c4=O)O[C@@H]3COP(=O)(O)O[C@H]3C[C@H](n4cc(C)c(=O)[nH]c4=O)O[C@@H]3COP(=O)(O)O[C@H]3C[C@H](n4cnc5c(=O)nc(N)[nH]c54)O[C@@H]3COP(=O)(O)O[C@H]3C[C@H](n4cnc5c(=O)nc(N)[nH]c54)O[C@@H]3COP(=O)(O)O)O2)c(=O)[nH]c1=O | 1.1 |
| Cc1cn([C@H]2C[C@H](OCOC[C@H]3O[C@@H](n4cnc5c(=O)nc(N)[nH]c54)C[C@@H]3OP(=O)(O)OC[C@H]3O[C@@H](n4cnc5c(=O)[nH]c(=N)[nH]c54)C[C@@H]3OP(=O)(O)OC[C@H]3O[C@@H](n4cc(C)c(=O)[nH]c4=O)C[C@@H]3OP(=O)(O)OC[C@H]3O[C@@H](n4cnc5c(=O)[nH]c(=N)[nH]c54)C[C@@H]3OP(=O)(O)OC[C@H]3O[C@@H](n4cc(C)c(=O)[nH]c4=O)C[C@@H]3OP(=O)(O)OC[C@H]3O[C@@H](n4cnc5c(=O)nc(N)[nH]c54)C[C@@H]3OP(=O)(O)OC[C@H]3O[C@@H](n4cnc5c(=O)[nH]c(=N)[nH]c54)C[C@@H]3OP(=O)(O)OC[C@H]3O[C@@H](n4cc(C)c(=O)[nH]c4=O)C[C@@H]3OP(=O)(O)OC[C@H]3O[C@@H](n4cc(C)c(=O)[nH]c4=O)C[C@@H]3OCOC[C@H]3O[C@@H](n4cnc5c(=O)[nH]c(=N)[nH]c54)C[C@@H]3OP(=O)(O)OC[C@H]3O[C@@H](n4cnc5c(=O)nc(N)[nH]c54)C[C@@H]3O)[C@@H](COP(=O)(O)O[C@H]3C[C@H](n4cc(C)c(=O)[nH]c4=O)O[C@@H]3COP(=O)(O)O[C@H]3C[C@H](n4cnc5c(=O)nc(N)[nH]c54)O[C@@H]3COP(=O)(O)O[C@H]3C[C@H](n4cnc5c(=O)[nH]c(=N)[nH]c54)O[C@@H]3COP(=O)(O)O)O2)c(=O)[nH]c1=O | 0.3 |
